Data on 3 compounds can be found in US5656588A, “Wound healing formula” (Wake Forest University, priority 1994, dated 1997).

Entries after “also recorded” stand apart in the source; their conditions may differ. Where two headings read alike, the source gives them in different places.

Experiment [1] deals with wound healing. To be noted: supplementation of the diet, animals and humans; cited from earlier work.
Experiment [2] deals with gastric and duodenal ulcers. To be noted: food deprived rats; cited from earlier work.
Experiment [3] concerns wound healing. Kind of experiment: Wound strength (abdominal bursting strength) in animals given carnosine or histidine following surgery. Type of experiment: in vivo. To be noted: supplement to a complete diet, mammals not nutritionally deprived. From the text: Pursuant to the present invention, therapeutically effective amounts of carnosine are supplemented with a complete diet. […] Previous studies in this area have advocated that the wound healing effects can be achieved with histamine or histidine. […] Table 2 illustrates comparative results between carnosine and histidine administered to animals following surgery.

With `N=C(N)NCCC[C@H](N)C(=O)O` [arginine], the “Effect on wound healing (in words)” value with wound healing [1] was “improves wound healing”.

Regarding N-acetyl-L-carnosine aluminum, the “Protection against ulcer formation (in words)” value in experiment [2] was “protects against the formation of gastric and duodenal ulcers”.

On to `NCCC(=O)N[C@@H](Cc1c[nH]cn1)C(=O)O` [carnosine, β-alanyl-histidine], for which the “Effect on wound healing (in words)” value with wound healing [3] is on record as “improves wound healing; also recorded: more effective in stimulating wound healing than histidine treatment”.
